Patent US20220023216A1, “INSTANTLY SOLUBLE PARTICLE AND METHOD FOR PRODUCING THE SAME” (RICOH COMPANY, LTD., priority 2019, published 2022)
In brackets after ≈: the same amount, converted by molar mass.

Key:
Type in all cases: physicochemical
[1] = Dissolution test of Test Example 1 (erlotinib, physiological saline); conditions: physiological saline 100 mL, 25 degrees Celsius, 50 rpm
Method: (§1) An active pharmaceutical ingredient of erlotinib (1.6 mg) and the particle 9 (16 mg) obtained in Example 9 were each added to a physiological saline solution (0.9 w/v %) (100 mL) as a solvent, and were dissolved for 30 minutes under the following conditions: a temperature of the solution: 25 degrees Celsius; and a stirring rate: 50 rpm. Then, an amount of the pharmaceutical agent dissolved over time was quantified through liquid chromatography (detector: UV/Vis detector).

[2] = Solubility of the poorly water-soluble (pharmaceutical) compound, Table 1; conditions: poorly-water-soluble compound (pharmaceutical compound) itself
[3] = Dissolution test of Test Example 3 (ibuprofen, physiological saline); conditions: physiological saline 100 mL, 25 degrees, 50 rpm
Excerpt: Then, an amount of the pharmaceutical agent dissolved over time was quantified through liquid chromatography (detector: UV/Vis detector).

[4] = Dissolution test of Test Example 2 (imatinib, water); conditions: water 100 mL, 25 degrees Celsius, 50 rpm
Method: as §1, with “imatinib (7.35” for “erlotinib (1.6”, “10 (73.5” for “9 (16”, “10” for “9”, “water” for “a physiological saline solution (0.9 w/v %)”, “mL),” for “mL) as a solvent,”

In the case of `C#Cc1cccc(Nc2ncnc3cc(OCCOC)c(OCCOC)cc23)c1` [Erlotinib, erlotinib], the Dissolution amount ([1]; 1 min) is reported as “Not detected”, the Dissolution amount ([1]; 3 min) is reported as 0.8 mg/mL and the Dissolution amount ([1]; 5 min) is reported as 1 mg/mL. It also gave a Dissolution amount ([1]; 15 min) of 1.1 mg/mL and a Dissolution amount ([1]; 30 min) of 2 mg/mL.

For `CC(C)Cc1ccc(C(C)C(=O)O)cc1` (stereo not drawn) [Ibuprofen, ibuprofen], the solubility [2] was 20 µg/mL (≈ 97 µM), the Dissolution amount ([3]; 2 min) was “Not detected” and the Dissolution amount ([3]; 5 min) was “Not detected”. The Dissolution amount ([3]; 15 min) was 5.4 mg/mL and the Dissolution amount ([3]; 30 min) was 9.7 mg/mL.

Compound `Cc1ccc(NC(=O)c2ccc(CN3CCN(C)CC3)cc2)cc1Nc1nccc(-c2cccnc2)n1` [Imatinib, imatinib] has a Dissolution amount ([4]; 1 min) of 9.7 mg/mL, a Dissolution amount ([4]; 3 min) of 13.4 mg/mL and a Dissolution amount ([4]; 5 min) of 18 mg/mL. It also gave a Dissolution amount ([4]; 15 min) of 19.8 mg/mL and a Dissolution amount ([4]; 30 min) of 13.7 mg/mL.
